From ChEMBL document CHEMBL1201862, “PubChem BioAssay data set” (2004)
Calls of active or inactive are those of the source.

How the values were obtained:
[1] = viability of PTEN-deleted HCT116 cells – cell-based, HCT116 PTEN knockout, dose response (AID 1047); type: functional;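 note: HCT116 colon tumor cells with PTEN knocked out; cells exposed to compound for 60 hours before readout; potency for loss of cell viability measured by luminescence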
[2] = viability of HCT116 lacking mutant beta-catenin – cell-based, human colon tumor, dose response (AID 1045); type: functional;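 note: HCT116 colon tumor cells with beta catenin knocked out; cells exposed to compound for 60 hours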
[3] = molecular target: G-protein coupled receptor 55 (Homo sapiens, UniProt Q9Y2T6); experiment: selective activators of receptor GPR55 – imaging, U2OS cells, beta-arrestin-GFP redistribution, primary screen (AID 1961); type: functional
Chain of G-protein coupled receptor 55 (Q9Y2T6 whole entry): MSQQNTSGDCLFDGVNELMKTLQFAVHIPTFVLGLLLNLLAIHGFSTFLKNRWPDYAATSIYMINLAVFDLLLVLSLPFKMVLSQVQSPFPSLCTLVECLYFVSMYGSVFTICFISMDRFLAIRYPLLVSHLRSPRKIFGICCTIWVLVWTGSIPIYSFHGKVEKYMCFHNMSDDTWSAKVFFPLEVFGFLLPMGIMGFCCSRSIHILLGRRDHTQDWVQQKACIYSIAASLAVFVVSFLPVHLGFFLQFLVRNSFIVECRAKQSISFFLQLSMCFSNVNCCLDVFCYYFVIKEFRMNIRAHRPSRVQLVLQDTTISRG

[4] = molecular target: T1, Replicative DNA helicase DnaB (Mycobacterium tuberculosis, UniProt P9WMR3); experiment: DnaB intein splicing inhibitors, dose response, biochemical, cell-free fluorescence (AID 449749); type: functional
T1 sequence (P9WMR3 whole entry): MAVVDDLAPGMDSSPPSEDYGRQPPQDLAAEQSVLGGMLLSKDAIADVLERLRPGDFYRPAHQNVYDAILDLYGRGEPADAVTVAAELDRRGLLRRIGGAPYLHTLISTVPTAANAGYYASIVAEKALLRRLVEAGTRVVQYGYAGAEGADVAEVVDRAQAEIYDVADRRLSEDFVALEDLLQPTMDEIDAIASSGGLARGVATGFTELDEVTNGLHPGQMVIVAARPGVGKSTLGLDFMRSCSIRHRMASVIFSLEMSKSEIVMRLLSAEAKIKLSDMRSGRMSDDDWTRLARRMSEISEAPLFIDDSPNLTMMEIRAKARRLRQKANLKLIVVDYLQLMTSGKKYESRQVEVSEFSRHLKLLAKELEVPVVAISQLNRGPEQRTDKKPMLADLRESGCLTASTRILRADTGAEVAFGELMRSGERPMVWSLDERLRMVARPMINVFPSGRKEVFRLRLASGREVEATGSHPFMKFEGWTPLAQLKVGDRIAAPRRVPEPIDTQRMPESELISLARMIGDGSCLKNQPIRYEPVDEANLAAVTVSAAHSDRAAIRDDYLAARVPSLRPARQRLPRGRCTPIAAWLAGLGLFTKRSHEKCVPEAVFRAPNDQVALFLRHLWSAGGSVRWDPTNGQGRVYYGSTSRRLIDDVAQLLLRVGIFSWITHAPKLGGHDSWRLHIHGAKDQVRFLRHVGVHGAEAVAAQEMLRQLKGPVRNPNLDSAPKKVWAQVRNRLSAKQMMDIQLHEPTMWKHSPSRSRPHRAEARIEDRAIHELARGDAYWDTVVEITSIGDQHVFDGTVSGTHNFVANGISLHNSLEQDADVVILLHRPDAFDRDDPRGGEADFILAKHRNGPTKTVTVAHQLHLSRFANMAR

[5] = molecular target: T2, Protein RecA (Mycobacterium tuberculosis, UniProt P9WHJ3); experiment: Fluorescence Cell-Free Homogeneous Dose Retest to Identify Inhibitors of RecA-Intein Splicing Activity. [Related pubchem assays (depositor defined):AID2097, AID2223, AID489010, AID492950]; type: functional
T2 sequence (P9WHJ3 whole entry): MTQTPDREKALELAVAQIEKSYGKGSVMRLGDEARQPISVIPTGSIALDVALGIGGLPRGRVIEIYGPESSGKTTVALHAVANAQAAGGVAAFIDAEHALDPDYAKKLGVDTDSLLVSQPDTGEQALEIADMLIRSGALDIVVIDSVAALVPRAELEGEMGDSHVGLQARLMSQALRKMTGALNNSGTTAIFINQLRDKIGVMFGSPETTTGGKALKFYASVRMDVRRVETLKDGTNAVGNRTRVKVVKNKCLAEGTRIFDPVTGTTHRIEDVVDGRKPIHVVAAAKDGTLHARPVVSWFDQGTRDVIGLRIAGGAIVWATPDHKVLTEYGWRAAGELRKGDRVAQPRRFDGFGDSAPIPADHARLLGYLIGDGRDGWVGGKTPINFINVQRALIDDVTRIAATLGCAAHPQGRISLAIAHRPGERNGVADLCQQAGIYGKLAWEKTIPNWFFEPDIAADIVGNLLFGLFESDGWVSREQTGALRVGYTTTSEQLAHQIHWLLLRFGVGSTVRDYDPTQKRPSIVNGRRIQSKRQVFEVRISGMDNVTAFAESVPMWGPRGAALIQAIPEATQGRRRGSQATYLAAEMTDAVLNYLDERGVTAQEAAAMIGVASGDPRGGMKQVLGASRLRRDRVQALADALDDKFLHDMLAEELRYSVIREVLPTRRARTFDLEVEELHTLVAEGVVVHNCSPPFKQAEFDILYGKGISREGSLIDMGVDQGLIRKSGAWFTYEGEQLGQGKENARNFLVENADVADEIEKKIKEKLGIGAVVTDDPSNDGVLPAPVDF

[6] = system: INS1; experiment: INS-1E survival protection against cytokine death – cell-based, luminescence, retest, dose response (AID 449756); type: functional; conditions: Rattus norvegicus;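 note: cell death triggered by IL-1 beta plus TNF-alpha plus IFN-gamma mixture; protective hits raise ATP signal compared with cytokine alone wells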
[7] = reduction of Shn3 3'UTR-driven luciferase in osteoblasts – cell-based, Clone20 osteoblasts, firefly luciferase, cherry-picked, dose response (AID 624132); type: functional;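 note: firefly luciferase luminescence from reporter carrying the Shn3 3'UTR in osteoblasts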
[8] = loss of viability in HepG2 cells – cell-based, CellTiter-Glo, cherry-picked, cytotoxicity control for Shn3 inhibitor project, dose response (AID 624134); type: functional
[9] = non-specific 3'UTR reporter inhibition in Clone20-Shn3RL – cell-based, Renilla luciferase, cherry-picked, counter-screen for Shn3 inhibitor project, dose response (AID 624133); type: functional
[10] = Fluorescence-based cell-based high throughput dose response assay for inhibitors of the interaction of nucleotide-binding oligomerization domain containing 2 (NOD2) and the receptor-interacting serine-threonine kinase 2 (RIPK2).; type: functional; conditions: Homo sapiens
[11] = reduced cellular PGC1a acetyl-lysine signal – cell-based, cherry-picked samples, dose response (AID 720514); type: functional;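 note: potency may reflect raised or lowered acetylation signal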
[12] = molecular target: T3, E3 ubiquitin-protein ligase XIAP (Homo sapiens, UniProt P98170); experiment: Counter Screen using XIAP-Bir3 for Chemical Antagonists of Bir1/2 domains of IAP-family anti-apoptotic proteins. [Related pubchem assays (depositor defined):AID1018, AID1449, AID1514, AID1638, AID1749, AID1750, AID488957, AID488963]
T3 sequence (P98170 whole entry): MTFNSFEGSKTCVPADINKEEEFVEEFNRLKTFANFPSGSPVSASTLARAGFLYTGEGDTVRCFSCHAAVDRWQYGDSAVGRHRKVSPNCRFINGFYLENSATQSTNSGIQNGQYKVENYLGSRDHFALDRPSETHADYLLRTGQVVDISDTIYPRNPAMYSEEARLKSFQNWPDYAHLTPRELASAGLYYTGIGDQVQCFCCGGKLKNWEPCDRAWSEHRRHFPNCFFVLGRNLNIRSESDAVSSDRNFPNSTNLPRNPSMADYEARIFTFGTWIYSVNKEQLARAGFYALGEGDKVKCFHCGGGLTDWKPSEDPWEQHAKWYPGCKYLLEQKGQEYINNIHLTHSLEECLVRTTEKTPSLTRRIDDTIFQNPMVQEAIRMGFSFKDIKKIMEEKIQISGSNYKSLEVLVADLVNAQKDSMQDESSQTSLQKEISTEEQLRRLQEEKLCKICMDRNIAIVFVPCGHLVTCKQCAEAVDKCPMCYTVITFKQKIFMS

[13] = molecular target: T3, E3 ubiquitin-protein ligase XIAP; experiment: small molecules displacing peptide from XIAP – biochemical, IAP family, fluorescence polarization (AID 1018); type: functional
[14] = molecular target: T4, Tyrosine-protein phosphatase non-receptor type 7 (Homo sapiens, UniProt P35236); type: functional
T4 sequence (P35236 whole entry): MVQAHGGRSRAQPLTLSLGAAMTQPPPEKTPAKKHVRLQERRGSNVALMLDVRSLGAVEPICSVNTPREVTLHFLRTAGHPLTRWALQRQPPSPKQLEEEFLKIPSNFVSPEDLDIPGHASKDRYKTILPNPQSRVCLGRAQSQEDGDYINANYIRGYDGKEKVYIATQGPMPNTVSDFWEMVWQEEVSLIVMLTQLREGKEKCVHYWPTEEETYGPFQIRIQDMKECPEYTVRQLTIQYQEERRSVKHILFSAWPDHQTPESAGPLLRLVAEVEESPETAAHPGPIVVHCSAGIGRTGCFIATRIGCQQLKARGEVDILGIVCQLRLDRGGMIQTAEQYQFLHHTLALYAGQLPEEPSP

[15] = molecular target: T5, Tyrosine-protein phosphatase non-receptor type 22 (Homo sapiens, UniProt Q9Y2R2); type: functional
T5 sequence (Q9Y2R2 whole entry): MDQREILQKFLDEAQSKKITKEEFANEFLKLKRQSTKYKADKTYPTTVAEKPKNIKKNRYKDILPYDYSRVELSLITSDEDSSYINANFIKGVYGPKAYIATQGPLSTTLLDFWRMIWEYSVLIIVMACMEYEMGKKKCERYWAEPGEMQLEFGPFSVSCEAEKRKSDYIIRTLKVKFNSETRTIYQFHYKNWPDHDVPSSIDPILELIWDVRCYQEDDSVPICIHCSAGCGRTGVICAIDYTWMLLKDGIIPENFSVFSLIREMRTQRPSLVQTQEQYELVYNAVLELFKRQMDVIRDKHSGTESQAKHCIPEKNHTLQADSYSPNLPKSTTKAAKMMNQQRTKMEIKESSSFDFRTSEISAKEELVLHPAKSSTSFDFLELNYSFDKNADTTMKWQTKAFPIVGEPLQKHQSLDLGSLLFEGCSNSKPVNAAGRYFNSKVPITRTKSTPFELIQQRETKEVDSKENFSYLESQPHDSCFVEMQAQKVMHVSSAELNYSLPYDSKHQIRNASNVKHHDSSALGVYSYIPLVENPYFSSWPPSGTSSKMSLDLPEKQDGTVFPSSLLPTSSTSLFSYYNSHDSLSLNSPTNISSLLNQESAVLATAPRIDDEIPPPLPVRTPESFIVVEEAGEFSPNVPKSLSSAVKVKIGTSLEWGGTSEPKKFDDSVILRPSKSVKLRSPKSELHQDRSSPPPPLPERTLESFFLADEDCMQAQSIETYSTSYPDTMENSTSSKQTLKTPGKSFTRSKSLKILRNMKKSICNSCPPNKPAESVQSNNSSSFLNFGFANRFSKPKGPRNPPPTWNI

[16] = molecular target: T5, Tyrosine-protein phosphatase non-receptor type 22; type: functional; remark: listed apart in the source
[17] = HPDE-C7 pancreatic duct cell viability loss – fluorescence, HTS (AID 430); type: functional, cell-based; conditions: Homo sapiens
[18] = viability loss of HPDE-C7K cells – cell-based, fluorescence, HTS, primary screen (AID 431); type: functional; conditions: Homo sapiens
[19] = THP-1 cell cytotoxicity, dose response, cytotoxicity control for non-replicating M. tuberculosis project (AID 489025); type: functional
[20] = Vero E6 cell cytotoxicity, dose response, cytotoxicity control for non-replicating M. tuberculosis project, secondary assay (AID 492998); type: functional, VeroE6; conditions: Vero C1008
[21] = molecular target: T6, Short transient receptor potential channel 4 (Mus musculus, UniProt Q9QUQ5); experiment: calcium entry via TRPC4 opening agents – cell-based, HEK293 TRPC4/mu-opioid, Fluo-4 calcium, dose response (AID 434937); type: functional
T6 sequence (Q9QUQ5 whole entry): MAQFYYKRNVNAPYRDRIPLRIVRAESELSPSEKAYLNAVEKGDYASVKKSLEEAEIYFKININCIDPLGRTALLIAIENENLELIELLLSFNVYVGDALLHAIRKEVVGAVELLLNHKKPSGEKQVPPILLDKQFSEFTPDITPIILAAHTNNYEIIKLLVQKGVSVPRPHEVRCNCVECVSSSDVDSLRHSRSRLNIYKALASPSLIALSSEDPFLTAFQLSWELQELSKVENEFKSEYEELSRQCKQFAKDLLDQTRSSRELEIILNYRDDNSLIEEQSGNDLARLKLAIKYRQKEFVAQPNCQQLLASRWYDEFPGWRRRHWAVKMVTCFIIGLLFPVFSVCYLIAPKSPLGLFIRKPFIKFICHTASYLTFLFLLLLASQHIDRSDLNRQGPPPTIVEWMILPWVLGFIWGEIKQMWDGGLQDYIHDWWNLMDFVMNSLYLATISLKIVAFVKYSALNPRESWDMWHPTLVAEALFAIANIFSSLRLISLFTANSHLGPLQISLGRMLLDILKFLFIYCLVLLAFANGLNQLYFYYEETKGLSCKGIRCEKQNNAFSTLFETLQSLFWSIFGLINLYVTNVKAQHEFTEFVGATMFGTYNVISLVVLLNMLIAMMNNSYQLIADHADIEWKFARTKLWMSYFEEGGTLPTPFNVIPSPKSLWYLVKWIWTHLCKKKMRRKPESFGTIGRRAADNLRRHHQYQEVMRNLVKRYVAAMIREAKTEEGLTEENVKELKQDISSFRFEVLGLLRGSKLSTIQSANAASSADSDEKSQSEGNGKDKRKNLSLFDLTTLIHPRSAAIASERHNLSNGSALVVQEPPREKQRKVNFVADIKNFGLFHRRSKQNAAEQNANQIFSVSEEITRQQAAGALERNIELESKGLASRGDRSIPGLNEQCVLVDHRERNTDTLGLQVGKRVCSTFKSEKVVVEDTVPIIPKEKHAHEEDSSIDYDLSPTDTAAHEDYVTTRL

[22] = cells; type: functional

O=C(NCc1cccnc1)/C(=C/c1ccc(-c2ccc(Cl)cc2)o1)S(=O)(=O)c1ccccc1
EC50 [1]: 4.4 µM (active) | EC50 [2]: 4.08 µM (active) | EC50 [3]: > 32 µM (inactive) | AC50 [4]: > 380 µM (inactive) | EC50 [5]: 27.3 µM (active) | AC50 [6]: 6.51 µM (active) | AC50 [7]: 5.35 µM (active) | AC50 [8]: 11.9 µM (active) | AC50 [9]: 11.8 µM (active) | IC50 [10]: 6.4 µM (active) | AC50 [11]: 6.04 µM (active)

CCOc1ccc(C(=O)Nc2cccc(NC(=O)c3cccs3)c2)cc1[N+](=O)[O-]
IC50 [12]: > 100 µM (inactive) | IC50 [13]: > 100 µM (not active)

Brc1ccc(C2Nc3cccc4cccc(c34)N2)o1
IC50 [14]: > 79.4 µM (inactive) | IC50 [15]: > 79.4 µM (inactive) | IC50 [16]: > 79.4 µM (inactive)

CC(C)(C)NC(=O)C(c1ccncc1)N(C(=O)Cn1nnc(-c2ccc(F)cc2)n1)c1ccccc1F (configuration not stated)
IC50 [12]: > 100 µM (inactive) | IC50 [13]: > 100 µM (not active)

CCn1cc(CNC(=O)c2cc([N+](=O)[O-])c(C)c([N+](=O)[O-])c2)cn1
IC50 [14]: > 79.4 µM (inactive) | IC50 [15]: > 79.4 µM (inactive) | IC50 [16]: > 79.4 µM (inactive)

Cn1c(SCC(=O)N2CCN(c3ccccc3)CC2)nnc1-c1cc2ccccc2o1
IC50 [14]: > 79.4 µM (inactive) | IC50 [15]: > 79.4 µM (inactive) | IC50 [16]: > 79.4 µM (inactive)

CN(C)C=C1C(=O)N(C2CCCCC2)C(=O)N(C2CCCCC2)C1=O
EC50 [17]: 9.27 µM (active) | EC50 [18]: 13.7 µM (active) | CC50 [19]: > 40 µM (active) | CC50 [20]: > 20 µM (active) | EC50 [21]: 9.44 µM (active) | IC50 [22]: 11.2 µM (active)

COC(=O)C1=C(C(=O)OC)N2C=CC=CC2(C)C(C(=O)OC)=C1C(=O)OC (configuration not stated)
IC50 [12]: > 100 µM (inactive) | IC50 [13]: > 100 µM (not active)
